Measured values taken from publication PMC8689140 (Frontiers in Pharmacology, 2021).

Tests used:
[1] = test system: dopamine receptors, serotonin receptors, adrenergic receptors, dopamine transporter, norepinephrine transporter, five serotonin transporter; test: Multi-target activity screen of SpectrumScreen Panel (Eurofins screen); settings: serotonin transporters, and so on
[2] = Metabolite identification in liver microsomes from humans, dogs and rats (stated across species); format: in vitro ADME, human, dog, rat; settings: liver microsomes from humans, rats, and dogs
Method: Human, rat and dog liver microsomes were carefully thawed on ice prior to the experiment and diluted to 1 mg/ml in100 mM sodium phosphate buffer (pH 7.4) containing 10 mM magnesium chloride. […] After 3 min of preincubation at 37°C, the reactions were initiated by adding 20 µL of NADPH (20 mM) and then incubated at 37°C in a shaking water bath for 60 min. All samples were prepared in duplicates. The reactions were terminated by adding 600 µl of ice-cold acetonitrile and stored at −20°C until analysis. Control samples without NADPH and 0-time point samples were included. As a positive control, testosterone (10 µM) which was metabolized to produce the hydroxylation metabolite was used as a substrate to confirm the activity of the incubation system. Next, the samples were centrifuged at 13,000 rpm for 10 min, the supernatant was separated and evaporated to dryness under a nitrogen stream. The residue was resuspended in 100 μl of acetonitrile, after centrifugation, the supernatants were analyzed by UPLC–UV-HRMS.
The analysis was performed on Acquity UPLC system coupled with a diode array detector (Waters Corporation, United States) and Q Exactive™ Orbitrap HRMS (Thermo Electron Corporation, United States). […]
HRMS were operated at positive ion mode using a heating electrospray ionization source (HESI). […] The metabolites were detected by full MS/dd-MS^2 analysis from m/z 100 to m/z 1,000. […]

[3] = test system: locomotor activity of rats; test: Time-dependent effects on locomotor activity in rats; format: in vivo, rat; settings: SD rats, 1.3 μmol/kg
Method: Rats were placed into the detection box after a single intragastric administration at different time points, and two rats from each group were used in each round of the experiment. The TopScan monitoring system was used to record and analyze the locomotor activity of the rats in different periods (0–1, 1–2, 3–4, 5–6, 6–7, and 7–8 h) after administration, and the RR was calculated as previously described.

rat VMAT2 = target: T1, rat VMAT2 (Rattus norvegicus, UniProt Q01827); test: [3H]DA uptake assay in rat striatal synaptosomes; format: biochemical
T1 construct: in vitro [^3H]DA uptake assay in rat striatal synaptosomes; from tissue; host or cells: rat striatal synaptosomes / vesicular suspension
Method: [^3H]DA (dihydroxyphenylethyethylamine, 3,4-[ring-2,5,6-^3H]; specific activity, 28.0 Ci/mmol) was purchased from Perkin Elmer. […] After drying, the filter plate was sealed with unifilter-96 back sealing tape and added 50 μl of microscint-20 (Perkin Elmer), then sealed the top of the filter plate with TopSeal-A. The radioactivity was measured by a TopCount scintillation counter. GraphPad Prism 5.0 was used to analyze data.

[4] = Metabolite identification in dog plasma after oral dose; format: in vivo; settings: dog plasma after oral administration
Method: Male beagle dogs were randomly divided into four groups. […] The dogs were fasted for 12 h before treatment and 4 h after treatment, but they were granted free access to water. Blood was collected from the vein before administration and 0.083 (only for injection groups), 0.25, 0.5, 1, 2, 3, 4, 6, 8, 12 and 24 h, and placed it in heparinized tubes, and centrifuged it at 8,000 rpm for 10 min at 4°C to separate the plasma, which we stored at −20 °C until analysis. The plasma samples were pretreated by protein precipitation with acetonitrile and quantitated by the validated LC-MS/MS (Shimadzu Exion-Triple Quad 4500) method.
Then, four volumes of acetonitrile (containing 0.1% formic acid) were added into the pooled plasma samples to precipitate the proteins. After vortex-mixing and centrifugation, the supernatants were dried under a nitrogen stream. Then, the residues were resuspended in 100 μl of acetonitrile/water (1:1, v/v) with 0.1% formic acid. After centrifugation, the supernatants were analyzed by UPLC–UV-HRMS for metabolite identification.
The analysis was performed on Acquity UPLC system coupled with a diode array detector (Waters Corporation, United States) and Q Exactive™ Orbitrap HRMS (Thermo Electron Corporation, United States). […] The mobile phase was composed water containing 0.1% formic acid (A) and acetonitrile containing 0.1% formic acid (B). The flow rate was 0.40 ml/min. The elution conditions were the following linear gradient for metabolite identify in HLMs: 0–1 min: 95% A, 1–2 min: 80% A, 2–5 min: 80% A, 5–8 min: 70% A, 8–12 min: 30% A, 12–15 min: 5% A, 15–16 min: 95% A, and 16–18 min: 95% A. The elution conditions were the following for metabolite identify in dog plasma: 0–1 min: 95% A, 1–30 min: 70% A, 30–32 min: 30% A, 32–33 min: 5% A, 33–35 min: 95% A, and 35–40 min: 95% A.
HRMS were operated at positive ion mode using a heating electrospray ionization source (HESI). The optimized operating parameters were set as follows: sheath gas (nitrogen) flow rate of 35 psi, aux gas (nitrogen) flow rate of 10 psi, HESI and capillary temperature of 350°C, and spray voltage of 3.5 kV. The metabolites were detected by full MS/dd-MS^2 analysis from m/z 100 to m/z 1,000. The resolution of the first-class scan and second-class scan was 70 000 and 17 500, respectively. The collision energy for collision induced dissociation (NCE) was set to 20, 40 and 60 eV. The loop count was set to five and the dynamic exclusion duration to 10 s. […] Thermo Compound Discover software was used to identify expected and unknown metabolites, and we finally proposed (+)-13e metabolic pathways based on the deduced metabolites and relevant drug biotransformation knowledge.

[5] = test system: locomotor activity of rats; test: Dose-dependent effects on locomotor activity in rats; format: in vivo, rat; settings: for reduction rate (RR) of locomotion: 0.5-[…] after dosing
Method: Before administration, animals were transported to the test room and allowed to acclimate for at least 1 h. Immediately after drug administration, rats were placed into activity chambers to assess their basal locomotor activity using the TopScan monitoring system. The total travel distance was recorded from 0.5 to 1.5 h after administration in intervals of 10 min.

rat brain VMAT2 = target: T2, rat brain VMAT2 (Rattus norvegicus, UniProt Q01827); test: VMAT2 binding assay (inhibition of [3H]HTBZ binding); settings: ratio of Ki vs HTBZ
T2 construct: the whole rat brain (excluding the cerebellum) or striatal were homogenized; tissue Eurofins Panlabs (assay performed by); host or cells: rat brain (without cerebellum) or striatum, synaptic vesicle suspension
T2 sequence (Q01827 whole entry): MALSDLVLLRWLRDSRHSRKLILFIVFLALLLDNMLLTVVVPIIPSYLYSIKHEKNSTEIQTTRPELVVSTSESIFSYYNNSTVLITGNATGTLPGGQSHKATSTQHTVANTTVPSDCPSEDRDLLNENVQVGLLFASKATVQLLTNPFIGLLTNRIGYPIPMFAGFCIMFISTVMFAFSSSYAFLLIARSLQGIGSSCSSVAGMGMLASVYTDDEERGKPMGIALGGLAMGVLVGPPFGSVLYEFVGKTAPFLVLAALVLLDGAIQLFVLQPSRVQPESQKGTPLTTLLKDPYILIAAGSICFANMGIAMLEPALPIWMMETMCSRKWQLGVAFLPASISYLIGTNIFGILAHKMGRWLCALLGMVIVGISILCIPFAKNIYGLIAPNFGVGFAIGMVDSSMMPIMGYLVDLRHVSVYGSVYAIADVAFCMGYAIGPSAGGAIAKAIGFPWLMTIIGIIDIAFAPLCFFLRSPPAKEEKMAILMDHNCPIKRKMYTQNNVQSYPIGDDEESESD
Method: In brief, the whole rat brain (excluding the cerebellum) or striatal were homogenized in 20 ml of ice-cold sucrose solution (0.32 M). […] The samples were centrifuged at 20,000 g at 4°C for 20 min, then 20 ml of MgSO4 solution (1 mM) was added to the supernatant.
A 96-well plate was used for the assay in duplicate. […] Samples were preincubated for 30 min at room temperature. […] All reactions were terminated using vacuum filtration over a GF/B glass fiber filter pretreated with 0.5% BSA. […] Radioactivity retained on the filters was determined by liquid scintillation counter. […] IC50 values were determined by a nonlinear least-squares regression analysis and Ki was calculated.

T1 sequence (Q01827 whole entry): as above

## COc1cc2c(cc1OCC(F)(F)F)CCN1CC(CC(C)C)C(O)CC21 (single isomer, unassigned; (+)) [(+)-13e, (+)-9-(2,2,2-trifluoroethoxy)-α-dihydrotetrabenazine]
[1]
  effects in multi-target activity screen: no effects
[2]
  O-detrifluoroethylation at the nine position: did not occur
[3]
  duration of significant inhibition of locomotor activity: at least 8 h
Rat VMAT2; [3H]DA uptake, rat striatal synaptosomes
  IC90: 34.1 nM
Rat VMAT2; ratio of IC50 vs HTBZ
  inhibitory effect on [3H]DA uptake stronger than that of HTBZ: approximately 5 fold
[4]
  O-detrifluoroethylation at the nine position: did not occur
[5]; SD rats, first dose with significant inhibition of locomotor activity vs NS (p < 0.05)
  starting effective dose: 0.32 µmol/kg
[5]; SD rats, single oral gavage 0.32 μmol/kg
  reduction rate (RR) of locomotion: 58.6%
[5]; SD rats, single oral gavage 1.3 μmol/kg
  reduction rate (RR) of locomotion: 95.5%
[5]; rat locomotor activity
  PD effect stronger than that of VBZ in vivo: approximately 4 fold
Rat brain VMAT2
  affinity for VMAT2 stronger than that of HTBZ: ~3 fold
